Columns and labels:
[1] = target: CYP125A3 (Mycolicibacterium smegmatis, UniProt A0R4Y3); test: UV-vis spectral titration; format: binding
[2] = target: T1, CYP125A4 (Mycolicibacterium smegmatis, UniProt A0QY38); test: UV-vis spectral titration; format: binding
T1 sequence (A0QY38 1-430): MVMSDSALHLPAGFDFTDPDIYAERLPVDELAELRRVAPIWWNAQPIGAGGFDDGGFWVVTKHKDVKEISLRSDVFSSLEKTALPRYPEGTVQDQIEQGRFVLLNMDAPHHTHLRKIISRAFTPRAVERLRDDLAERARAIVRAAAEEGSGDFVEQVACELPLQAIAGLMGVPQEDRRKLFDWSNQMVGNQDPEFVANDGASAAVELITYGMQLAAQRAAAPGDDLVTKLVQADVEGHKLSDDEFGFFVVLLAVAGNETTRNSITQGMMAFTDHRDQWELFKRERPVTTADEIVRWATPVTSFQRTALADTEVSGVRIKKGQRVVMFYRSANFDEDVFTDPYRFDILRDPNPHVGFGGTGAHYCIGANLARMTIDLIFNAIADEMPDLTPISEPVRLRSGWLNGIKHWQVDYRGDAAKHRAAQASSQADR

[3] = tested on: CC(C)CCC[C@@H](C)[C@H]1CC[C@H]2[C@@H]3CCC4=CC(=O)CC[C@]4(C)[C@H]3CC[C@]12C; test: steady-state turnover of purified enzyme, HPLC; format: biochemical, Mycolicibacterium smegmatis; conditions: heme
[4] = target: T1, CYP125A4; test: UV-vis partial type I spectral shift; format: binding
[5] = tested on: CC(C)CCC[C@@H](C)[C@H]1CC[C@H]2[C@@H]3[C@H](O)CC4=CC(=O)CC[C@]4(C)[C@H]3CC[C@]12C; test: steady-state turnover of purified enzyme, HPLC; format: biochemical, Mycolicibacterium smegmatis; conditions: heme

Sequence of CYP125A3 (A0R4Y3 whole entry): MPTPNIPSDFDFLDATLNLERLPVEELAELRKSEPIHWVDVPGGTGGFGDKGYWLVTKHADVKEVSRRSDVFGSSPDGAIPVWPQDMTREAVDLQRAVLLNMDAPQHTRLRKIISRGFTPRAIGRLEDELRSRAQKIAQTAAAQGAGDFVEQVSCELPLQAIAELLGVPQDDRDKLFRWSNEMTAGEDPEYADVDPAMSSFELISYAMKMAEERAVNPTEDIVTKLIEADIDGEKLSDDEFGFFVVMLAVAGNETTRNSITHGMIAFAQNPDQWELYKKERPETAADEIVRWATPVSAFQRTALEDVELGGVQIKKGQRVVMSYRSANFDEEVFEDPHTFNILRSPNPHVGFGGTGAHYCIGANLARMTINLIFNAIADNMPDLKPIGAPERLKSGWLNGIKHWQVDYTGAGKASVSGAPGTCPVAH

Q: Which Kd [1] does the source give for `CC(C)CCC[C@@H](C)[C@H]1CC[C@H]2[C@@H]3[C@H](O)C=C4C[C@@H](O)CC[C@]4(C)[C@H]3CC[C@]12C` [7α-hydroxycholesterol] here?
A: 32.9 ± 4.7 µM

Q: And the Kd [2]?
A: 8.7 ± 0.5 µM

Q: For “CYP125A3 W83Y (Mycolicibacterium smegmatis MC2 155; W83Y)”, which Km [3] is on record?
A: 24.1 ± 7.8 µM

Q: How did the “UV-vis partial type I spectral shift; C-26 oxidation by HPLC” value [4] turn out when `CC(C)CCC[C@@H](C)[C@H]1CC[C@H]2[C@@H]3CC=C4C[C@@H](O)CC[C@]4(C)[C@H]3CC[C@]12C` [cholesterol] was run?
A: Addition of cholesterol or 4-cholesten-3-one did induce a partial shift to the type I high-spin species

Q: How did the Km [5] turn out when “CYP125A4 Y87W (Mycolicibacterium smegmatis MC2 155; Y87W)” was run?
A: 5.1 ± 1.3 µM
